For 93 compounds, residual activity results are on record in the kinase profiling compilation of Christmann-Franck et al. (2016).

For this assay, the system named is SGK1 (human), O00141 [S422D]. Kind of assay: radiometric filter-binding kinase assay, Kinase HotSpot. The conditions noted are these: compound 0.5 µM; ATP 10 µM.
SGK1 (human), O00141 [S422D], sequence (O00141 whole entry S422D, looked up): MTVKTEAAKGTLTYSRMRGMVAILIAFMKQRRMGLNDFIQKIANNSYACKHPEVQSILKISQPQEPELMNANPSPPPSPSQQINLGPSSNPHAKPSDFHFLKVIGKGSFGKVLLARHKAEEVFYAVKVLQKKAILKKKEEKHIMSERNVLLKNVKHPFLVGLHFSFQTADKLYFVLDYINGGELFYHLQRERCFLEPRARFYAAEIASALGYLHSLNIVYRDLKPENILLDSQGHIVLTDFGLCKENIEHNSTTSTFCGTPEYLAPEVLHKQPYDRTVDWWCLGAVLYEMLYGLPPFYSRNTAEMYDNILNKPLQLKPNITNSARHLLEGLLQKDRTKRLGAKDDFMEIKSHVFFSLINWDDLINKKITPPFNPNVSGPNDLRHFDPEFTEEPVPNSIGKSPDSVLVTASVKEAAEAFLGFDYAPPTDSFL

Broadly, the residual activity is the signal under treatment as a percentage of the control signal. As to `O=C(O)/C=C/c1cc(Br)c(Br)c(Br)c1Br`, the residual activity worked out at 76.7%.
For the compound `O=C1NC(=O)c2c1c1c3ccccc3[nH]c1n1cncc21`, the residual activity was 69%.
As for `O=C1NC(=O)C(c2c[nH]c3ccccc23)=C1c1c[nH]c2ccccc12`, the residual activity stood at 105%.
Take `CSc1nc(-c2ccc(F)cc2)c(-c2ccnc(NC(C)c3ccccc3)c2)[nH]1` (stereo not drawn): the residual activity amounted to 97.3%.
As to `CCCNC(=O)Nc1ccc(Oc2ncnc3cc(OC)c(OC)cc23)cc1Cl`, the residual activity was determined as 96.2%.
For `CS(=O)c1ccc(-c2nc(-c3ccc(F)cc3)c(-c3ccncc3)[nH]2)cc1` (stereo not drawn), the residual activity is 97.3%.
Turning to `CCOC(=O)c1c(C)[nH]c(/C=C2\C(=O)Nc3ccccc32)c1C`, the residual activity came to 92%.
Consider `CC#CC(=O)Nc1cc2c(Nc3ccc(F)c(Cl)c3)ncnc2cn1`, for which the residual activity worked out at 95.6%.
As to `Oc1cccc(-c2nc(N3CCOCC3)c3oc4ncccc4c3n2)c1`, the residual activity is 100%.
For `CCC(=O)Nc1ccc2ncnc(Nc3cccc(Br)c3)c2c1`, the residual activity was 84.6%.
In the case of `Cc1ccc(S(=O)(=O)/C=C/C#N)cc1`, the residual activity is 98.7%.
Turning to `CC[n+]1c(/C=C/N(C)c2ccccc2)n(-c2ccccc2)c2ccc(-c3nc4ccccc4s3)cc21`, the residual activity was determined as 97.2%.
Turning to `CNC(=O)c1cc(Oc2ccc(NC(=O)Nc3ccc(Cl)c(C(F)(F)F)c3)cc2)ccn1`, the residual activity was determined as 95.2%.
For the compound `c1ccc(-c2n[nH]cc2-c2ccnc3ccccc23)nc1`, the residual activity worked out at 103%.
With `c1ccc(-c2n[nH]c3c2oc2ccccc23)cc1`, the residual activity came to 101%.
For the compound `COc1ccc(Cl)cc1NC(=O)Nc1cc(C)nc2ccccc12`, the residual activity stood at 94.7%.
Take `Nc1ccc2ncnc(NCCc3ccc(Oc4ccccc4)cc3)c2c1`: the residual activity came to 104%.
On to `Nc1cccc(-c2cc3c(Oc4cccc(O)c4)ncnc3[nH]2)c1`, for which the residual activity turned out to be 101%.
As for `COc1cc2ncnc(Nc3ccc(OCc4ccccc4)cc3)c2cc1OC`, the residual activity worked out at 103%.
With `O=C1Nc2ccc(Br)cc2/C1=C\c1cc2c([nH]1)CCCC2`, the residual activity was found to be 93.4%.
Consider `Cn1cnc2cc3c(Nc4cccc(Br)c4)ncnc3cc21`, for which the residual activity is 115%.
With `Cc1ccc(NC2=CC(=O)c3sc(C)nc3C2=O)cc1`, the residual activity was determined as 114%.
Next, `COc1cc2ncnc(Nc3cccc(Cl)c3)c2cc1OC`: 91.3%.
In the case of `COc1cc2ncnc(N3CCN(C(=O)Nc4ccc(Oc5ccccc5)cc4)CC3)c2cc1OC` it was 99.8%.
As for `CN(C)CCCn1cc(C2=C(c3c[nH]c4ccccc34)C(=O)NC2=O)c2ccccc21`, the residual activity was found to be 48.6%.
Regarding `O=C(c1cc2cc(O)ccc2[nH]1)c1cc2cc(O)ccc2[nH]1`, the residual activity was found to be 74.2%.
As for `CCn1cnc2c(Nc3cccc(Cl)c3)nc(N[C@@H]3CCCC[C@@H]3N)nc21`, the residual activity stood at 120%.
`COc1ccc2c(c[n+](C)c3c4cc5c(cc4ccc23)OCO5)c1OC`: the residual activity was found to be 118%.
As for `CNc1cc2c(Nc3cccc(Br)c3)ncnc2cn1`, the residual activity came out at 94.4%.
Turning to `COc1ccc(CNC(=O)Nc2ncc([N+](=O)[O-])s2)cc1`, the residual activity is 105%.
For the compound `COc1ccc(OC)c2c(=S)c3ccccc3[nH]c12`, the residual activity was determined as 125%.
With `O=C1Nc2ccccc2/C1=C1\Nc2ccccc2\C1=N/O`, the residual activity turned out to be 69.1%.
Next, `CC[C@@H](CO)Nc1nc(NCc2ccccc2)c2ncn(C(C)C)c2n1`: 120%; `CC(C)[C@H](CO)Nc1nc(Nc2cc(N)cc(Cl)c2)c2ncn(C(C)C)c2n1`: 93.1%.
Take `CCCCc1c(-c2ccc(OC)cc2)[nH]c2nccnc12`: the residual activity is 88.4%.
For `Cc1cccc(-c2nc(C(C)(C)C)[nH]c2-c2ccc3c(c2)OCO3)n1`, the residual activity turned out to be 99.6%.
Turning to `C#Cc1cccc(Nc2ncnc3cc(OCCOC)c(OCCOC)cc23)c1`, the residual activity was 122%.
Take `O=S(=O)(c1cccc2cnccc12)N1CCCNCC1`: the residual activity turned out to be 96.6%.
`CC(C)(C)c1cc(C=C(C#N)C#N)cc(Br)c1O`: the residual activity was 95.3%.
Next, `Nc1nc(Nc2ccc(S(N)(=O)=O)cc2)nn1C(=S)Nc1c(F)cccc1F`: 48.7%; `O=C1Cc2c([nH]c3ccc(Br)cc23)-c2ccccc2N1`: 107%; `CCN1/C(=C/C(C)=O)Sc2ccc(OC)cc21`: 121%.
Regarding `O=C1Nc2ccccc2/C1=C1/Nc2ccccc2/C1=N\OCCC(O)CO` (stereo not drawn), the residual activity turned out to be 51%.
As for `COc1cc2ncc(-c3ccccc3)nc2cc1OC`, the residual activity stood at 88.5%.
Consider `COc1cc2ncnc(Nc3ccc(Oc4ccccc4)cc3)c2cc1OC`, for which the residual activity was 103%.
As to `O=C1NC(=O)c2c1c1c3ccccc3n3c1c1c2c2ccccc2n1C1CCC3O1`, the residual activity was 23.8%.
In the case of `NC(=O)c1ccc(N(C(N)=O)c2c(F)cccc2F)nc1-c1ccc(F)cc1F` it was 121%.
For the compound `O=C1NC(=O)C(c2cn(CCCn3ccnc3)c3ccccc23)=C1Nc1ccccc1`, the residual activity turned out to be 74.9%.
In the case of `CN(C)c1ccc(/C=C2\C(=O)Nc3ccccc32)cc1`, the residual activity was 93.1%.
`Cn1c2ccccc2c2c3c(c4c5ccccc5n(CCC#N)c4c21)CNC3=O`: the residual activity was 79.1%.
For the compound `Clc1ccc(Nc2nnc(Cc3ccncc3)c3ccccc23)cc1`, the residual activity is 121%.
Take `N#C/C(=C(/N)Sc1ccc(N)cc1)c1ccccc1C(F)(F)F`: the residual activity stood at 102%.
Next, `O=C(NC(NC(=S)Nc1ccc(F)c([N+](=O)[O-])c1)C(Cl)(Cl)Cl)C(c1ccccc1)c1ccccc1` (stereo not drawn): 93.1%; `CS(=O)(=O)CCNCc1ccc(-c2ccc3ncnc(Nc4ccc(OCc5cccc(F)c5)c(Cl)c4)c3c2)o1`: 128%; `CN(C)C[C@H]1CCn2c(c(C3=C(c4cn(C)c5ccccc45)C(=O)NC3=O)c3ccccc32)C1`: 72.9%.
`CCN(CC)CCNC(=O)c1c(C)[nH]c(/C=C2\C(=O)Nc3ccc(Cl)cc32)c1C`: the residual activity amounted to 49.6%.
Next, `COc1ccc(COc2ccc(Cc3cnc(N)nc3N)cc2OC)cc1`: 97.9%; `CC(C)N(CCC(=O)c1ccc2ccccc2c1)Cc1ccccc1`: 101%.
As for `COc1cc2nccc(Oc3ccc(NC(=S)NC(=O)c4ccccc4C)cc3)c2cc1OC`, the residual activity turned out to be 101%.
In the case of `O=C1Cc2c([nH]c3ccc([N+](=O)[O-])cc23)-c2ccccc2N1` it was 96%; in that of `Cc1[nH]c(/C=C2\C(=O)Nc3ccc(S(=O)(=O)N(C)c4cccc(Cl)c4)cc32)c(C)c1C(=O)N1CCN(C)CC1`, 103%; in that of `COc1ccc2c(c1)c(C1=C(c3c[nH]c4ccccc34)C(=O)NC1=O)cn2CCCN(C)C`, 99.5%.
In the case of `O=C1C(Cl)=C(N2C(=O)CCC2=O)C(=O)c2ccccc21` it was 104%.
Next, `C[C@@H]1CCN(C(=O)CC#N)C[C@@H]1N(C)c1ncnc2[nH]ccc12`: 123%.
Turning to `O=C1Nc2ccccc2/C1=C\c1c(Cl)[nH]c2ccccc12`, the residual activity amounted to 116%.
Consider `Nc1nc(Nc2ccc(S(N)(=O)=O)cc2)nn1C(=O)c1c(F)cccc1F`, for which the residual activity was 93%.
`Nc1ncnc2c1c(-c1ccc(Oc3ccccc3)cc1)cn2C1CCCC1`: the residual activity stood at 103%.
For `O=C1Nc2ccc(Cl)cc2/C1=C/c1cc(Cl)c(O)c(Cl)c1`, the residual activity worked out at 91.3%.
As for `O=C(CCCc1ccc(-c2ccccc2F)cc1)Nc1ccc(O)cc1`, the residual activity is 103%.
For `COc1cc(Nc2c(C#N)cnc3cc(OCCCN4CCN(C)CC4)c(OC)cc23)c(Cl)cc1Cl`, the residual activity stood at 126%.
For the compound `CN([C@@H](Cc1ccc(OS(=O)(=O)c2cccc3cnccc23)cc1)C(=O)N1CCN(c2ccccc2)CC1)S(=O)(=O)c1cccc2cnccc12`, the residual activity turned out to be 105%.
As for `Cc1nc(-c2ccccc2)c(-c2ccncc2)o1`, the residual activity was found to be 99.3%.
As for `Cc1nc2cc3nc(-c4cccs4)cnc3cc2n1C`, the residual activity amounted to 95.9%.
`Oc1ccc(Nc2nc(-c3ccc(Cl)cc3)cs2)cc1`: the residual activity worked out at 106%.
In the case of `Cc1ccc(NC(=O)c2ccc(CN3CCN(C)CC3)cc2)cc1Nc1nc(-c2cccnc2)cs1`, the residual activity stood at 111%.
`CO[C@@H]1[C@H](N(C)C(=O)c2ccccc2)C[C@H]2O[C@]1(C)n1c3ccccc3c3c4c(c5c6ccccc6n2c5c31)C(=O)NC4`: the residual activity was 81.9%.
In the case of `COc1ccc(C(=O)Nc2sc3c(c2C(N)=O)CCCC3)cc1OC` it was 98.7%; in that of `N#Cc1c[nH]c2c[nH]/c(=N\Cc3cccnc3)cc2/c1=N\c1ccc(F)c(Cl)c1`, 93.2%.
Turning to `CCN(CC)CCNC(=O)c1c(C)[nH]c(/C=C2\C(=O)Nc3ccc(F)cc32)c1C`, the residual activity worked out at 62.8%.
Consider `N#C/C(=C\c1ccc(O)c(O)c1)C(=O)NCc1ccccc1`, for which the residual activity was found to be 103%.
In the case of `O=c1cc(N2CCNCC2)oc2c(-c3ccccc3)cccc12` it was 103%.
For the compound `CN(C)S(=O)(=O)c1ccc2c(c1)/C(=C/c1cc3c([nH]1)CCCC3)C(=O)N2`, the residual activity was found to be 105%.
Regarding `c1ccc2c(-c3ccncc3)c[nH]c2c1`, the residual activity came out at 93.8%.
For the compound `CC(C)c1nn(-c2c(Cl)cccc2Cl)c2nc(Cc3ccc(OCCO)cc3)nc(O)c12`, the residual activity came to 118%.
Turning to `O=C1NC(=O)/C(=C\c2ccc3nccnc3c2)S1`, the residual activity worked out at 95%.
`O=C(Nc1cccc(Nc2cc(Nc3cccc(C(F)(F)F)c3)ncn2)c1)C1CC1`: the residual activity was determined as 94.8%.
As for `Ic1cccc(CSc2nnc(-c3ccncc3)o2)c1`, the residual activity amounted to 99%.
Next, `O=C1NC(=O)/C(=C/c2ccc3c(c2)OC(F)(F)O3)S1`: 102%.
As for `Nc1ncnc2[nH]nc(Nc3ccc(F)cc3)c12`, the residual activity is 91.5%.
On to `CCN(CC)CCCCN1c2ccccc2Oc2ccc(Cl)cc21`, for which the residual activity came to 99.4%.
In the case of `Cn1sc(=O)n(Cc2ccccc2)c1=O` it was 94%.
Regarding `O=C(Nc1ccc(Cl)cc1)c1ccccc1NCc1ccncc1`, the residual activity was 96%.
For `CC(C)n1cnc2c(Nc3cccc(Cl)c3)nc(NCCO)nc21`, the residual activity was determined as 115%.
